Data published in patent publication US9284330B2 (priority 2011, dated 2016).
Read-outs that look alike come from different tables or passages of the source.

How the values were obtained:
[1] = test system: tau protein phosphorylation; type: cell-based; settings: Western blot, 24 h incubation
[2] = target: acetylcholinesterase (Electrophorus electricus (Electric eel) (Gymnotus electricus), UniProt O42275); assay: biochemical
[3] = test system: primary cortical neuron cells; settings: for Relative neuron activity (average): 24 h incubation; for Toxicity to primary neurons (in words): concentrations tested 0.01, 0.1 and 1 μM, 24 h
[4] = test system: L-type Ca2+ channel; assay: Blocking of L-type Ca2+ channel by high content screening analyzer, KCl-induced calcium ion influx in SH-SY5Y cells (Fluo-4-AM)
[5] = test system: L-type Ca2+ channel; assay: Blocking of L-type Ca2+ channel by patch clamp, calcium current in rat dorsal root ganglion cells; type: cell-based; settings: whole cell patch clamp
[6] = test system: primary cortical neuron cells; assay: Effect of the compounds on the morphology of neurons (microscopy); settings: 0.01 to 1 μM, 24 h

Chain of acetylcholinesterase (O42275 whole entry, looked up): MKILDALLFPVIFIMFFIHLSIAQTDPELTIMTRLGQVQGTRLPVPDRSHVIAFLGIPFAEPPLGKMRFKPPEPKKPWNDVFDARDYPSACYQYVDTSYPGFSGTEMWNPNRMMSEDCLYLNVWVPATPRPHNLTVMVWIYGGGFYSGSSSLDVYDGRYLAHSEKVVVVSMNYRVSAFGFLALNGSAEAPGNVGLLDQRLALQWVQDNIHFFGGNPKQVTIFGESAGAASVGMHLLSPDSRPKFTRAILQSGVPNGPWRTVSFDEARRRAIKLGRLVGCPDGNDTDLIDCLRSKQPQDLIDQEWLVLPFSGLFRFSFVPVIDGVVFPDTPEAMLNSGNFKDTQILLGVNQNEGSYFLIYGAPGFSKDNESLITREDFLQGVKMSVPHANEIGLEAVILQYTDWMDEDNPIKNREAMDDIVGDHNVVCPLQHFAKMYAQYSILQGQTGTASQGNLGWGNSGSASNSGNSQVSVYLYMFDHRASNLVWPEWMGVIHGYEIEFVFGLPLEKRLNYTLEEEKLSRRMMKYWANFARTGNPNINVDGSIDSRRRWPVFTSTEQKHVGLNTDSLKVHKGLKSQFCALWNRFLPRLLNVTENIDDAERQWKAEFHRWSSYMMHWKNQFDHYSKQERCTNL

Row | SMILES | Intracellular tau protein phosphorylation of neurons [1] | IC50 [2] [nM] | Relative neuron activity (average) ([3]; 0.01 μM) [%] | Relative neuron activity (average) ([3]; 0.1 μM) [%] | Relative neuron activity (average) ([3]; 1 μM) [%] | Toxicity to primary neurons (in words) [3] | Inhibition rate of KCl-induced calcium ion influx ([4]; 10 μM compound) [%] | Inhibition rate of KCl-induced calcium ion influx ([4]; 50 μM compound) [%] | Inhibition rate of L-type Ca2+ channel current ([5]; 100 nmol/L compound) [%] | Inhibition rate of L-type Ca2+ channel current ([5]; 1000 nmol/L compound) [%] | Effect on the morphology of neurons [6]
1 | COC(=O)C1=C(C)Nc2nc3c(c(N)c2C1c1cccc([N+](=O)[O-])c1)CCCC3C (stereo not shown) [Compound S15, 5-amino-4-(3-nitrophenyl)-2,9-dimethyl-1,4,6,7,8,9-hexahydrobenzo[b][1,8]naphthyridine-3-carboxylic acid methyl ester] | reduced | 729 | 111.9 | 105.8 | 65.9 | minor toxicity |  |  |  |  | 
2 | CC1=C(C(=O)OC(C)C)C(c2cccc(F)c2)c2c(nc3c(c2N)CC(C)(C)CC3)N1 (stereo not shown) [Compound S3, 5-amino-4-(3-fluorophenyl)-2,7,7-trimethyl-1,4,6,7,8,9-hexahydrobenzo[b][1,8]napht hyridine-3-carboxylic acid isopropyl ester] | reduced | 1130 | 107.7 | 102.4 | 98.8 | no significant toxicity | 81.33 | 86.82 |  |  | 
3 | CCOC(=O)C1=C(C)Nc2nc3c(c(N)c2C1c1ccccc1Cl)CC(C)(C)CC3 (stereo not shown) [Compound S1, 5-amino-4-(2-chlorphenyl)-2,7,7-trimethyl-1,4,6,7,8,9-hexahydrobenzo[b][1,8]naphthyridine-3-carboxylic acid ethyl ester] | reduced | 768 | 110.6 | 113.9 | 97.9 | no significant toxicity | 29.29 | 63.60 | 38.14 | 61.76 | no effect on the morphology of neurons
4 | COC(=O)C1=C(C)Nc2nc3c(c(N)c2C1c1cccc(Cl)c1Cl)CC(C)CC3 (stereo not shown) [Compound S27, 5-amino-4-(2,3-dichlorophenyl)-2,7-dimethyl-1,4,6,7,8,9-hexahydrobenzo[b][1,8]nap hthyridine-3-carboxylic acid methyl ester] |  | 178 | 123.7 | 102.9 | 43.0 |  |  |  | 39.68 | 65.54 | 
5 | CCOC(=O)C1=C(C)Nc2nc3c(c(N)c2C1c1cccc(Cl)c1)CC(C)(C)CC3 (stereo not shown) [Compound S6, 5-amino-4-(3-chlorphenyl)-2,7,7-trimethyl-1,4,6,7,8,9-hexahydrobenzo[b][6,8]naphth yridine-3-carboxylic acid ethyl ester] | reduced | 893 | 107.1 | 105.3 | 99.0 | no significant toxicity | 11.30 | 95.51 |  |  | 
6 | CC1=C(C(=O)OC(C)C)C(c2ccccc2Cl)c2c(nc3c(c2N)CC(C)(C)CC3)N1 (stereo not shown) [Compound S32, 5-amino-2,7,7-trimethyl-4-(2-chlorphenyl)-1,4,6,7,8,9-hexahydrobenzo[b][1,8]naphth yridine-3-carboxylic acid isopropyl ester] | reduced | 6920 | 115.5 | 106.5 | 98.6 | no significant toxicity | 29.49 | 91.10 |  |  | 
7 | CC1=C(C(=O)OC(C)C)C(c2ccccc2F)c2c(nc3c(c2N)CC(C)(C)CC3)N1 (stereo not shown) [Compound S8, 5-amino-4-(2-fluorophenyl)-2,7,7-trimethyl-1,4,6,7,8,9-hexahydrobenzo[b][1,8]napht hyridine-3-carboxylic acid isopropyl ester] | reduced | 757 | 114.7 | 101.7 | 97.7 | no significant toxicity | 61.63 | 93.28 |  |  | 
